From patent US4997454A, “Method for making uniformly-sized particles from insoluble compounds” (The University of Rochester, priority 1989, dated 1991) come the findings set out here.

The structures appear in SMILES notation. ≈ marks a conversion by molar mass, not a printed value.

As to `CCOC(=O)c1c(I)cc(I)c(NC(=O)CCCCC(=O)Nc2c(I)cc(I)c(C(=O)OCC)c2I)c1I` [IDE, iodipamide ethyl ester], the solubility in water is given as 10^-5 M.
Usually solubility stands for the concentration that dissolves in the medium under given conditions. With `O=C1NC(=O)[C@H]2[C@H]3C=C[C@@H]([C@@H]12)[C@@H]1[C@H]2C(=O)NC(=O)[C@H]2[C@H]31` [mitindomide], the solubility in “solubility” (absolute ethanol, organic solvent or mixture) is below 4 µg/mL; in “solubility” (water), 70 µg/mL (≈ 257 µM).
